Data taken from patent publication US12551463B2, “Dosing of a Bruton's tyrosine kinase inhibitor” (Loxo Oncology, Inc., priority 2019, dated 2026).

Assays:
CLL/SLL = assay: Phase 1/2 clinical study, CLL/SLL patients; format: in vivo, human
From the text: (§1) The study is an open-label, multi-center study of oral BTK-I to evaluate safety and efficacy as monotherapy and as part of combination therapy in patients with CLL/SLL and NHL who have failed or are intolerant to standard of care. This study includes monotherapy as well as combination treatment parts. The monotherapy part includes Phase 1 dose escalation and dose expansion as well as Phase 2. The combination therapy part is a Phase 1b (safety assessment and expansion) of BTK-I in combination with venetoclax, with or without anti-CD20 therapy. Phase 1 dose escalation will proceed prior to start of Phase 1b or Phase 2. Once a recommended Phase 2 dose (RP2D) is identified in Phase 1, enrollment can commence to the Phase 1b combination therapies and Phase 2 monotherapy cohorts.
The primary objectives of the Phase 1 Dose Escalation and Expansion part of the study is to determine the maximum tolerated dose (MTD)/RP2D of oral BTK-I in patients with previously treated CLL/SLL and B-cell NHL.
Patients are enrolled with histologically confirmed CLL/SLL or B-cell NHL who have failed or are intolerant to at least two prior standard of care regimens given in combination or sequentially or have received at least one prior BTK inhibitor-containing regimen when BTK inhibitor is approved in first line.
BTK-I is administered in oral tablet form. Dose escalation will follow a 3+3 design starting with a 25 mg QD dose (followed by 50 mg QD (dose level cohort 2), 100 mg QD (dose level cohort 3), 150 mg QD (dose level cohort 4), 200 mg QD (dose level cohort 5), 250 mg QD (dose level cohort 6), and 300 mg QD (dose level cohort 7)). Cycle length will be 28 days. The drug limiting toxicity (DLT) period will be 28 days, commencing with the first dose of BTK-I.
The primary objective of the Phase 2 is to assess the primary anti-tumor activity of BTK-I based on overall response rate (ORR) and as assessed by the Independent Review Committee.
At the RP2D up to ˜600 patients with CLL/SLL or NHL will be enrolled to one of the following cohorts: • Cohort 1: Non-blastoid MCL patients treated with a prior BTK-inhibitor. • Cohort 2: CLL/SLL patients treated with 2 or more prior regimens, including a BTK inhibitor-containing regimen. • Cohort 3: CLL/SLL patients with no prior therapy. • Cohort 4: CLL/SLL patients treated with prior therapy, BTK inhibitor naive. • Cohort 5: WM patients treated with a prior BTK inhibitor containing regimen. • Cohort 6: MZL patients treated with a prior BTK inhibitor containing regimen. • Cohort 7: (Not otherwise specified) defined as CLL/SLL or NHL not otherwise specified in Cohorts 1 through 6, inclusive of CLL/SLL or NHL, Richter's transformation, blastoid MCL, and patients with history of CNS involvement or primary CNS lymphoma.
Dosing during Phase 2 will be at the RP2D of 200 mg QD. The cycle length will be 28 days. BTK-I will be administered to the Phase 2 patients in oral tablet form at the RP2D. The dose (and schedule) chosen for Phase 2 may be changed by the SRC based on emerging data (e.g., PK, safety, and/or efficacy) as long as the new dose is not greater than the highest dose that has a DLT <33% and is determined to be safe by the SRC in Phase 1. If the RP2D is changed based on emerging data, patients enrolled to Phase 2 at a different dose may have the dose changed to the new dose.

MZL = assay: Phase 1/2 clinical study, MZL patients; format: in vivo, human
From the text: as §1, with “cohorts. […]” for “cohorts.”
The primary objective of the Phase 2 is to assess the primary anti-tumor activity of BTK-I based on overall response rate (ORR) and as assessed by the Independent Review Committee. […]
Dosing during Phase 2 will be at the RP2D of 200 mg QD. […] The dose (and schedule) chosen for Phase 2 may be changed by the SRC based on emerging data (e.g., PK, safety, and/or efficacy) as long as the new dose is not greater than the highest dose that has a DLT <33% and is determined to be safe by the SRC in Phase 1. […]

[1] = test system: CLL/SLL, MCL, Waldenstrom's macroglobulinemia and follicular lymphoma patients; assay: Human clinical trials of BTK-I: overall response rate in efficacy-evaluable patients; format: in vivo
Method: (Mato A., et al., “Toxicities and Outcomes of 616 Ibrutinib-Treated Patients in the United States: A Real-World Analysis”, Haematologica, 2018, 103(5), 874-879.) Between Mar. 21, 2019 and Sep. 27, 2020, across 7 dose levels ranging from 25 mg once daily (QD) to 300 mg QD in 323 patients, the only treatment-emergent adverse events regardless of attribution or grade seen in ≥10% of patients (n=323) were fatigue (n=65, 20%), diarrhea (n=55, 17%), and contusion (n=42, 13%). In 121 efficacy-evaluable cBTKi-treated chronic lymphocytic leukemia (CLL) patients (median prior lines=4), overall response rate (ORR) was 62% (95% CI: 53-71), rising to 84% in patients followed for ≥10 months.

TMD8 BTK C481S cells = assay: In vivo mouse xenograft study, TMD8 BTK C481S; design: species or system mice; conditions: BTK-I BID alone; BTK C481S driven TMD8 (DLBCL) xenograft
Method: In all studies, test articles are administered alone and in combination, following different dosing regimens.
Human TMD8 BTK WT, TMD8 BTK C481S or REC-1 cells are injected subcutaneously in the right flank of mice. When tumors reach a mean volume between 150 mm^3 and 400 mm^3, mice are randomized based on their tumor volumes. Mice are next dosed for 14 to 23 days depending on the study design. The potencies of the compounds stand-alone or in combination on the inhibition of the tumor growth are assessed based on the tumor volume changes and weights after collection at the end of the study. Additionally, in the TMD8 studies, the plasma concentrations of test articles are measured at multiple time points after the last dose.

For `COc1ccc(F)cc1C(=O)NCc1ccc(-c2nn([C@@H](C)C(F)(F)F)c(N)c2C(N)=O)cc1` [BTK-I, (S)-5-amino-3-(4-((5-fluoro-2-methoxybenzamido)methyl)phenyl)-1-(1,1,1-trifluoropropane-2-yl)-1H-pyrazole-4-carboxamide], which ORR (CLL/SLL; 28 patients with 17p deletion, TP53 mutation, or both) is on record?
Its ORR is 79%.

And the ORR (CLL/SLL; 121 BTK-pretreated patients, CI: 53-71%)?
Its ORR is 62%.

What about the ORR (CLL/SLL; 139 efficacy-evaluable CLL/SLL patients, all dose levels, 95% CI: 55-71) of the same compound?
Its ORR is 63%.

And the “patients remaining on BTK-I” value (CLL/SLL; all CLL/SLL patients)?
Its value is 88%.

What about the ORR (CLL/SLL; at ≥10 months (25/29)) of the same compound?
The ORR was 86%.

And the ORR (CLL/SLL; discontinued covalent BTK inhibitor for progression [53/79])?
Its ORR is 67%.

And the ORR (CLL/SLL; discontinued covalent BTK inhibitor for toxicity or another reason [22/42])?
The ORR was 52%.

What about the ORR (CLL/SLL; followed for at least 8 months (35/49)) of the same compound?
The ORR was 71%.

What about the “BTK C481 mutant allele fraction from peripheral blood mononuclear cells” value (CLL/SLL; majority of responding patients) of the same compound?
The value was “decreased over time”.

What about the “responding patients no longer on therapy” value (CLL/SLL; of 88 responders (4 progressed, 1 electively discontinued)) of the same compound?
The value was 5.

What about the “non-evaluable (NE), patients” value (CLL/SLL; of 139, discontinued prior to first response assessment) of the same compound?
The value was 5.

And the “PR-L, patients” value (CLL/SLL; of 139 efficacy-evaluable)?
The value was 19.

And the “partial response (PR), patients” value (CLL/SLL; of 139 efficacy-evaluable)?
Its value is 69.

And the “progressive disease (PD), patients” value (CLL/SLL; of 139 efficacy-evaluable)?
The value was 1.

What about the “stable disease (SD), patients” value (CLL/SLL; of 139 efficacy-evaluable) of the same compound?
Its value is 45.

And the ORR (CLL/SLL; progression on prior covalent BTK inhibitor, with BTK C481 mutation [15/20])?
Its ORR is 75%.

And the ORR (CLL/SLL; progression on prior covalent BTK inhibitor, without BTK C481 mutation [18/30])?
The ORR was 60%.

What about the responses/patients (MZL) of the same compound?
Its responses/patients is 2/9.

And the ORR ([1]; 52 efficacy-evaluable cBTKi-treated MCL patients, 95% CI: 38-66)?
The ORR was 52%.

And the “overall response rate (ORR)” value ([1]; 121 efficacy-evaluable cBTKi-treated CLL patients, median prior lines=4, 95% CI: 53-71)?
Its value is 62%.

And the ORR ([1]; CLL/SLL patients with BTK C481-mutant disease (17/24))?
Its ORR is 71%.

What about the ORR ([1]; CLL/SLL patients with BTK-wildtype disease (43/65)) of the same compound?
The ORR was 66%.

What about the ORR ([1]; CLL/SLL patients with cBTKi intolerance (22/42)) of the same compound?
Its ORR is 52%.

What about the ORR ([1]; CLL/SLL patients with prior cBTKi resistance (53/79)) of the same compound?
Its ORR is 67%.

And the ORR ([1]; Waldenstrom's macroglobulinemia (WM), n=19)?
Its ORR is 68%.

And the “overall response rate (ORR)” value ([1]; cBTKi-treated CLL patients followed for ≥10 months)?
The value was 84%.

What about the ORR ([1]; follicular lymphoma (FL), n=8) of the same compound?
Its ORR is 50%.

And the “responding patients who remain progression-free” value ([1]; of 117 responding CLL or MCL patients)?
The value was “all but 8”.

And the “inhibition of xenograft tumor growth” value (TMD8 BTK C481S cells)?
The value was “potently inhibited the growth”.
